Experimental data reported in patent US20080207573A1, “COMPOUNDS FOR TREATING VIRAL INFECTIONS” (priority 2006, published 2008).

These molecules were tested on HIV-1IIIB (assay: PBMC Drug Susceptibility Assay (HIV-1 p24 in supernatant)). Conditions: Human immunodeficiency virus 1, PBMC, 168 h; Table 7; HIV-1IIIB-infected human PBMCs, seven days.
Format: cell-based
Excerpt: PBMC Drug Susceptibility Assay
Human peripheral blood mononuclear cells (PBMCS) were used to test compound antiviral activity as an indicator for clinical efficacy. PBMCs were isolated from two donors using a Ficoll-Hypaque density gradient, pooled and stimulated with PHA-L for three days. After stimulation, the cells were washed and maintained in culture medium containing IL-2. The stimulated cells were then mock-infected or batch-infected with the strain HIV-1IIIB at MOI 0.01 for one hour. Cells (unwashed) were then plated in the presence of increasing concentrations of compound and incubated for seven days. […] Compound toxicity in mock-infected cells was analyzed using the WST-1 assay.

SMILES	IC50 [nM]
C=C(C)[C@@H]1CC[C@]2(C(=O)NCc3ccc(F)cc3C(=O)O)CC[C@]3(C)C(CCC4[C@@]5(C)CCC(OC(=O)CC(C)(C)C(=O)O)C(C)(C)C5CC[C@]43C)C12 (some centres unmarked) [Compound 128]	3.6
C=C(C)[C@@H]1CC[C@]2(C(=O)NCc3cccnc3C(=O)O)CC[C@]3(C)C(CCC4[C@@]5(C)CCC(OC(=O)CC(C)(C)C(=O)O)C(C)(C)C5CC[C@]43C)C12 (some centres unmarked) [Compound 130]	44
C=C(C)[C@@H]1CC[C@]2(C(=O)NCc3ccc4cccc(O)c4n3)CC[C@]3(C)C(CCC4[C@@]5(C)CCC(OC(=O)CC(C)(C)C(=O)O)C(C)(C)C5CC[C@]43C)C12 (some centres unmarked) [Compound 131]	3.5
C=C(C)[C@@H]1CC[C@]2(C(=O)N[C@@H](C)c3cccc[n+]3[O-])CC[C@]3(C)C(CCC4[C@@]5(C)CCC(OC(=O)CC(C)(C)C(=O)O)C(C)(C)C5CC[C@]43C)C12 (some centres unmarked) [Compound 132]	44

The molecules below were run on HIV-1 laboratory strain, NL4-3 (assay: MT-4 Cytoprotection Assay (protection from HIV-induced cytopathic effect, WST-1 readout)). Conditions: Human immunodeficiency virus 1, NL43, MT4; Table 7; MT-4 cells, HIV-1 NL4-3; read-out: MT4 EC50.
Format: cell-based
Description: MT-4 Cytoprotection Assay
The HTLV-1 transformed T cell line, MT-4, is highly susceptible to HIV-1 infection. Anti-HIV-1 agents were evaluated in this target cell line by protection from the HIV-induced cytopathic effect. In this assay, viability of both HIV-1 and mock-infected cells was assessed in a […] assay that monitors the ability of metabolically-active cells to reduce the tetrazolium salt WST-1. Cytoprotection by antiviral compounds is indicated by the positive readout of increased WST-1 cleavage.
Briefly, exponentially growing MT-4 cells were mock-infected or batch-infected with the HIV-1 laboratory strain, NL4-3, at a multiplicity of infection of 0.0005. Following a two hour infection, the cells were washed to remove unbound virus and plated in the presence of increasing concentrations of compound. After four days incubation, cytoprotection in the infected cells and compound toxicity in mock-infected cells were analyzed using the WST-1 assay.

SMILES	EC50 [nM]
C=C(C)[C@@H]1CC[C@]2(C(=O)Nc3cccc4cccnc34)CC[C@]3(C)C(CCC4[C@@]5(C)CCC(OC(=O)CC(C)(C)C(=O)O)C(C)(C)C5CC[C@]43C)C12 (some centres unmarked) [Compound 127]	3100
C=C(C)[C@@H]1CC[C@]2(C(=O)NCc3ccc(F)cc3C(=O)O)CC[C@]3(C)C(CCC4[C@@]5(C)CCC(OC(=O)CC(C)(C)C(=O)O)C(C)(C)C5CC[C@]43C)C12 (some centres unmarked) [Compound 128]	28
C=C(C)[C@@H]1CC[C@]2(C(=O)NCc3ccc(C(=O)O)s3)CC[C@]3(C)C(CCC4[C@@]5(C)CCC(OC(=O)CC(C)(C)C(=O)O)C(C)(C)C5CC[C@]43C)C12 (some centres unmarked) [Compound 129]	371
C=C(C)[C@@H]1CC[C@]2(C(=O)NCc3cccnc3C(=O)O)CC[C@]3(C)C(CCC4[C@@]5(C)CCC(OC(=O)CC(C)(C)C(=O)O)C(C)(C)C5CC[C@]43C)C12 (some centres unmarked) [Compound 130]	24
C=C(C)[C@@H]1CC[C@]2(C(=O)NCc3ccc4cccc(O)c4n3)CC[C@]3(C)C(CCC4[C@@]5(C)CCC(OC(=O)CC(C)(C)C(=O)O)C(C)(C)C5CC[C@]43C)C12 (some centres unmarked) [Compound 131]	3
C=C(C)[C@@H]1CC[C@]2(C(=O)N[C@@H](C)c3cccc[n+]3[O-])CC[C@]3(C)C(CCC4[C@@]5(C)CCC(OC(=O)CC(C)(C)C(=O)O)C(C)(C)C5CC[C@]43C)C12 (some centres unmarked) [Compound 132]	36

Same assay, conditions: Human immunodeficiency virus 1, NL43; list of representative compounds; read-out: EC50 of less than about 100 nm (representative compounds)

SMILES	EC50 [nM]
C=C(C)[C@@H]1CC[C@]2(C(=O)NCc3cccc4ccccc34)CC[C@]3(C)[C@H](CC[C@@H]4[C@@]5(C)CC[C@H](OC(=O)CC(C)(C)C(=O)O)C(C)(C)[C@@H]5CC[C@]43C)[C@@H]12 [Compound 94]	< 100
C=C(C)[C@@H]1CC[C@]2(C(=O)NCc3ccoc3)CC[C@]3(C)[C@H](CC[C@@H]4[C@@]5(C)CC[C@H](OC(=O)CC(C)(C)C(=O)O)C(C)(C)[C@@H]5CC[C@]43C)[C@@H]12 [Compound 95]	< 100
C=C(C)[C@@H]1CC[C@]2(C(=O)NCCOc3ccc(OC)cc3)CC[C@]3(C)[C@H](CC[C@@H]4[C@@]5(C)CC[C@H](OC(=O)CC(C)(C)C(=O)O)C(C)(C)[C@@H]5CC[C@]43C)[C@@H]12 [Compound 97]	< 100
C=C(C)[C@@H]1CC[C@]2(C(=O)NCc3ccc(N(C)C)cc3)CC[C@]3(C)[C@H](CC[C@@H]4[C@@]5(C)CC[C@H](OC(=O)CC(C)(C)C(=O)O)C(C)(C)[C@@H]5CC[C@]43C)[C@@H]12 [Compound 99]	< 100
C=C(C)[C@@H]1CC[C@]2(C(=O)NCCc3ccc(C(=O)O)cc3)CC[C@]3(C)[C@H](CC[C@@H]4[C@@]5(C)CC[C@H](OC(=O)CC(C)(C)C(=O)O)C(C)(C)[C@@H]5CC[C@]43C)[C@@H]12 [Compound 100]	< 100
C=C(C)[C@@H]1CC[C@]2(C(=O)NCc3c(C)coc3C(F)(F)F)CC[C@]3(C)[C@H](CC[C@@H]4[C@@]5(C)CC[C@H](OC(=O)CC(C)(C)C(=O)O)C(C)(C)[C@@H]5CC[C@]43C)[C@@H]12 [Compound 101]	< 100
C=C(C)[C@@H]1CC[C@]2(C(=O)NCCCc3ccc(OC)c(OC)c3)CC[C@]3(C)[C@H](CC[C@@H]4[C@@]5(C)CC[C@H](OC(=O)CC(C)(C)C(=O)O)C(C)(C)[C@@H]5CC[C@]43C)[C@@H]12 [Compound 102]	< 100
C=C(C)[C@@H]1CC[C@]2(C(=O)NCc3cc(OC)c(OC)c(OC)c3)CC[C@]3(C)[C@H](CC[C@@H]4[C@@]5(C)CC[C@H](OC(=O)CC(C)(C)C(=O)O)C(C)(C)[C@@H]5CC[C@]43C)[C@@H]12 [Compound 103]	< 100
C=C(C)[C@@H]1CC[C@]2(C(=O)NCCCc3ccc(OC)cc3)CC[C@]3(C)[C@H](CC[C@@H]4[C@@]5(C)CC[C@H](OC(=O)CC(C)(C)C(=O)O)C(C)(C)[C@@H]5CC[C@]43C)[C@@H]12 [Compound 104]	< 100
C=C(C)[C@@H]1CC[C@]2(C(=O)NC(C)c3ccccn3)CC[C@]3(C)[C@H](CC[C@@H]4[C@@]5(C)CC[C@H](OC(=O)CC(C)(C)C(=O)O)C(C)(C)[C@@H]5CC[C@]43C)[C@@H]12 (some centres unmarked) [Compound 105]	< 100
C=C(C)[C@@H]1CC[C@]2(C(=O)NCc3nc4ccccc4s3)CC[C@]3(C)[C@H](CC[C@@H]4[C@@]5(C)CC[C@H](OC(=O)CC(C)(C)C(=O)O)C(C)(C)[C@@H]5CC[C@]43C)[C@@H]12 [Compound 106]	< 100
C=C(C)[C@@H]1CC[C@]2(C(=O)NCc3cccc(C)n3)CC[C@]3(C)[C@H](CC[C@@H]4[C@@]5(C)CC[C@H](OC(=O)CC(C)(C)C(=O)O)C(C)(C)[C@@H]5CC[C@]43C)[C@@H]12 [Compound 108]	< 100
C=C(C)[C@@H]1CC[C@]2(C(=O)NCc3nc4ccccc4n3C)CC[C@]3(C)[C@H](CC[C@@H]4[C@@]5(C)CC[C@H](OC(=O)CC(C)(C)C(=O)O)C(C)(C)[C@@H]5CC[C@]43C)[C@@H]12 [Compound 109]	< 100
C=C(C)[C@@H]1CC[C@]2(C(=O)NCc3nc4ccccc4[nH]3)CC[C@]3(C)[C@H](CC[C@@H]4[C@@]5(C)CC[C@H](OC(=O)CC(C)(C)C(=O)O)C(C)(C)[C@@H]5CC[C@]43C)[C@@H]12 [Compound 110]	< 100
C=C(C)[C@@H]1CC[C@]2(C(=O)NCc3ccc4ccccc4n3)CC[C@]3(C)[C@H](CC[C@@H]4[C@@]5(C)CC[C@H](OC(=O)CC(C)(C)C(=O)O)C(C)(C)[C@@H]5CC[C@]43C)[C@@H]12 [Compound 111]	< 100
C=C(C)[C@@H]1CC[C@]2(C(=O)NCc3cc(C)ccn3)CC[C@]3(C)[C@H](CC[C@@H]4[C@@]5(C)CC[C@H](OC(=O)CC(C)(C)C(=O)O)C(C)(C)[C@@H]5CC[C@]43C)[C@@H]12 [Compound 112]	< 100
C=C(C)[C@@H]1CC[C@]2(C(=O)NCc3ncccc3C)CC[C@]3(C)[C@H](CC[C@@H]4[C@@]5(C)CC[C@H](OC(=O)CC(C)(C)C(=O)O)C(C)(C)[C@@H]5CC[C@]43C)[C@@H]12 [Compound 113]	< 100
C=C(C)[C@@H]1CC[C@]2(C(=O)NCc3ccc(Cl)cn3)CC[C@]3(C)[C@H](CC[C@@H]4[C@@]5(C)CC[C@H](OC(=O)CC(C)(C)C(=O)O)C(C)(C)[C@@H]5CC[C@]43C)[C@@H]12 [Compound 114]	< 100
C=C(C)[C@@H]1CC[C@]2(C(=O)NC(Cc3ccccc3)C(=O)O)CC[C@]3(C)[C@H](CC[C@@H]4[C@@]5(C)CC[C@H](OC(=O)CC(C)(C)C(=O)O)C(C)(C)[C@@H]5CC[C@]43C)[C@@H]12 (some centres unmarked) [Compound 115]	< 100
C=C(C)[C@@H]1CC[C@]2(C(=O)N[C@@H](C)c3ccc(OC)cc3)CC[C@]3(C)[C@H](CC[C@@H]4[C@@]5(C)CC[C@H](OC(=O)CC(C)(C)C(=O)O)C(C)(C)[C@@H]5CC[C@]43C)[C@@H]12 [Compound 117]	< 100
C=C(C)[C@@H]1CC[C@]2(C(=O)NC(Cc3ccc(OC)cc3)C(=O)O)CC[C@]3(C)[C@H](CC[C@@H]4[C@@]5(C)CC[C@H](OC(=O)CC(C)(C)C(=O)O)C(C)(C)[C@@H]5CC[C@]43C)[C@@H]12 (some centres unmarked) [Compound 119]	< 100
C=C(C)[C@@H]1CC[C@]2(C(=O)NC(C(=O)O)c3ccc(OC)cc3)CC[C@]3(C)[C@H](CC[C@@H]4[C@@]5(C)CC[C@H](OC(=O)CC(C)(C)C(=O)O)C(C)(C)[C@@H]5CC[C@]43C)[C@@H]12 (some centres unmarked) [Compound 120]	< 100
CC(C)[C@@H]1CC[C@]2(C(=O)NCc3ccccc3C(=O)O)CC[C@]3(C)[C@H](CC[C@@H]4[C@@]5(C)CC[C@H](OC(=O)CC(C)(C)C(=O)O)C(C)(C)[C@@H]5CC[C@]43C)[C@@H]12 [Compound 122]	< 100
CC(C)[C@@H]1CC[C@]2(C(=O)NCC3CCCO3)CC[C@]3(C)[C@H](CC[C@@H]4[C@@]5(C)CC[C@H](OC(=O)CC(C)(C)C(=O)O)C(C)(C)[C@@H]5CC[C@]43C)[C@@H]12 (some centres unmarked) [Compound 123]	< 100
C=C(C)[C@@H]1CC[C@]2(C(=O)NCCC3CCCCC3)CC[C@]3(C)[C@H](CC[C@@H]4[C@@]5(C)CC[C@H](OC(=O)CC(C)(C)C(=O)O)C(C)(C)[C@@H]5CC[C@]43C)[C@@H]12 [Compound 124]	< 100
